Molecular target: T1, MBNL1 protein (Homo sapiens, UniProt Q9NR56)
T1 sequence (Q9NR56 1-388): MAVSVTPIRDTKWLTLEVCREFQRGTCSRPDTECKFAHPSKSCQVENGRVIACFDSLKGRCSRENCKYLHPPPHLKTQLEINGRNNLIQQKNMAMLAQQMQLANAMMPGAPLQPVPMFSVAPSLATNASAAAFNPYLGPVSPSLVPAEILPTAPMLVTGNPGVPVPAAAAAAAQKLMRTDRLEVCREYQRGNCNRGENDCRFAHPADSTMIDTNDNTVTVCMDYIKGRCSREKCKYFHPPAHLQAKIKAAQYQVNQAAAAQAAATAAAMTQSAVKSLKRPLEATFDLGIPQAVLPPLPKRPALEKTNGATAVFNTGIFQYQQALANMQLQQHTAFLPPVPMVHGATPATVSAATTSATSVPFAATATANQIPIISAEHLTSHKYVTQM
Test: Differential scanning fluorimetry with MBNL1 protein (SYPRO Orange)
Type: binding
Conditions: MBNL1 10 μM
Protocol: All experiments were performed using a QuantStudio 5, 384-well Block Real-Time PCR System (Applied Biosystems). Melting curve analyses were conducted using a temperature range from 20 to 95 °C, a ramp rate of 0.01 °C/s, and 75 acquisitions per °C. Melting temperatures (T m) were determined as the peak of the negative first derivative of the fluorescence curve. Each condition was measured in triplicate, and ΔT m values were calculated relative to vehicle control. The FAM-r(CUG)10-BHQ (FAM-CCGC-UGCU-GCUG-CUGC-UGCU-GCUG-CUGC-UGCU-GCGG-BHQ) oligonucleotide was purchased from Dharmacon (HPLC purified). Briefly, 500 nM FAM-r(CUG)10-BHQ was folded by heating at 95 °C for 2 min in 20 mM NaH2PO4/Na2HPO4 buffer, pH 7.4 and then snap cooling on ice for at least 10 min. The folded RNA was incubated with test compounds at the indicated concentrations for 30 min at room temperature. In the melting curve method, fluorescence intensity was monitored using the FAM filter channel.
DSF experiments to assess compound–MBNL1 interactions were performed using SYPRO Orange Dye (Invitrogen, catalog #S6651). […] Samples (10 μL) were transferred to a 384-well PCR plate, and fluorescence intensity as a function of temperature was monitored using the TAMRA filter channel.

## Cc1ccc(CNC(=O)c2cc3c(N4CCCC4)nc(C)cn3n2)cc1 [A1]
  ΔTm at 100 µM: 1 °C

From article PMC12670313 (ACS Central Science, 2025)
